Measured values: patent US7105538B2, “2-pyrrolidin-2-yl-[1,3,4]-oxadiazole compounds and their use as anti-depressants” (Gruenenthal GmbH, priority 2002, dated 2006)

Test system: 5HT uptake (serotonin re-uptake), synaptosomes from rat brain
Experiment: Inhibition of serotonin re-uptake (5HT-uptake inhibition) in rat brain synaptosomes
Format: biochemical
Conditions: synaptosomes (P2 fraction) from medulla+pons region of male rats' brains; test concentration not given
Procedure: Tests of Inhibition of Serotonin Re-Uptake (5HT-Uptake Inhibition)
To be able to carry out these studies in vitro, synaptosomes were freshly isolated from rat brain areas. What is known as a “P2” fraction was used in each case. This was prepared in accordance with Gray and Whittaker's directions (E. G. Gray and V. P. Whittaker (1962) J. Anat. 76, 79–88). These vesicular particles were isolated from the medulla+pons region of male rats' brains for 5HT uptake. A detailed description of the method may be found in the literature (M. Ch. Frink, H.-H. Hennies, W. Englberger, M. Haurand and B. Wilffert (1996) Arzneim. -Forsch./Drug Res. 46 (III), 11,1029–1036). The 5HT-uptake inhibition of the following compounds was tested by way of example: […]

Compound | 5HT uptake, % inhibition
CCOC(=O)CCC(=O)N1CCCC1c1nnc(-c2ccncc2)o1 (centres unmarked) [Example 4, 4-oxo-4-[2-(5-pyridin-4-yl-[1,3,4]oxadiazol-2-yl)-pyrrolidin-1-yl]-butyric acid ethyl ester] | 72%
COc1ccc(C(=O)N2CCCC2c2nnc(-c3ccncc3)o2)c(OC)c1 (centres unmarked) [Example 5, (2,4-dimethoxy-phenyl)-[2-(5-pyridin-4-yl-[1,3,4]oxadiazol-2-yl)-pyrrolidin-1-yl]methanone] | 81%
O=C(c1cccnc1Cl)N1CCCC1c1nnc(-c2ccncc2)o1 (centres unmarked) [Example 6, (2-chloro-pyridin-3-yl)-[2-(5-pyridin-4-yl-[1,3,4]oxadiazol-2-yl)pyrrolidin-1-yl]-methanone] | 84%
CC1(C)C2CCC1(CS(=O)(=O)N1CCCC1c1nnc(-c3ccncc3)o1)C(=O)C2 (centres unmarked) [Example 7, 7,7-dimethyl-1-[2-(5-pyridin-4-yl-[1,3,4]oxadiazol-2-yl)-pyrrolidin-1-sulfonylmethyl]-bicyclo[2.2.1]heptan-2-one] | 64%
CN(C)c1cccc(C(=O)N2CCCC2c2nnc(-c3cccnc3)o2)c1 (centres unmarked) [Example 12, (3-dimethyamino-phenyl)-[2-(5-pyridin-3-yl-[1,3,4]oxadiazol-2-yl)-pyrrolidin-1-yl]-methanone] | 54%
COc1ccc(CC(=O)N2CCCC2c2nnc(-c3ccncc3)o2)cc1OC (centres unmarked) [Example 13, 2-(3,4-dimethoxy-phenyl)-1-[2-(5-pyridin-4-yl-[1,3,4]oxadiazol-2-yl)-pyrrolidin-1-yl]-ethanone] | 67%
O=C(c1ccc(Cl)cc1)N1CCCC1c1nnc(-c2ccc(-c3ccccc3)cc2)o1 (centres unmarked) [Example 14, [2-(5-biphenyl-4-yl-[1,3,4]oxadiazol-2-yl)-pyrrolidin-1-yl]-(4-chloro-phenyl)-methanone] | 69%
Cc1ccc(CS(=O)(=O)NC(Cc2ccccc2)C(=O)N2CCCC2c2nnc(-c3ccncc3)o2)cc1 (centres unmarked) [Example 21, N-{1-benzyl-2-oxo-2-[2-(5-pyridin-4-yl-[1,3,4]oxadiazol-2-yl)-pyrrolidin-1-yl]-ethyl}-4-methyl-benzylsulfonamide] | 53%
O=S(=O)(c1cc(Cl)c(Cl)s1)N1CCCC1c1nnc(-c2ccncc2)o1 (centres unmarked) [Example 22, 4-{5-[1-(4,5-dichloro-thiophene-2-sulfonyl)-pyrrolidin-2-yl]-[1,3,4]oxadiazol-2-yl}-pyridine] | 60%
COc1ccc(OC)c(CS(=O)(=O)N2CCCC2c2nnc(-c3cccnc3)o2)c1 (centres unmarked) [Example 30, 3-{5-[1-(2,5-dimethoxyl-benzylsulfonyl)-pyrrolidin-2-yl]-[1,3,4]oxadiazol-2-yl}-pyridine] | 60%
Cc1cc(C)c(CS(=O)(=O)N2CCCC2c2nnc(-c3ccccc3F)o2)c(C)c1 (centres unmarked) [Example 61, 2-(2-fluoro-phenyl)-5-[1-(2,4,6-trimethyl-benzylsulfonyl)-pyrrolidin-2-yl]-[1,3,4]oxadiazole] | 50%
O=C(COc1ccc(Cl)cc1)N1CCCC1c1nnc(-c2ccncc2)o1 (centres unmarked) [Example 67, 2-(4-chloro-phenoxy)-1-[2-(5-pyridin-4-yl-[1,3,4]oxadiazol-2-yl)-pyrrolidin-1-yl]-ethanone] | 50%
O=C(C=Cc1ccccc1)N1CCCC1c1nnc(-c2ccccc2)o1 (centres unmarked) [Example 84, 3-phenyl-1-[2-(5-phenyl-[1,3,4]oxadiazol-2-yl)-pyrrolidin-1-yl]-propenone] | 61%
Cc1nn(-c2ccccc2)nc1C(=O)N1CCCC1c1nnc(-c2ccncc2)o1 (centres unmarked) [Example 85, (5-methyl-2-phenyl-[1,2.3]triazol-4-yl)-[2-(5-pyridin-4-yl-[1,3,4]oxadiazol-2-yl)-pyrrolidin-1-yl]-methanone] | 61%
O=S(=O)(Cc1ccc(F)cc1F)N1CCCC1c1nnc(-c2cccnc2)o1 (centres unmarked) [Example 86, 3-{5-[1-(2,4-difluoro-benzylsulfonyl)-pyrrolidin-2-yl]-[1,3,4]oxadiazol-2-yl}-pyridine] | 73%
COc1cccc(-c2nnc(C3CCCN3C(=O)c3ccc(Br)cc3)o2)c1 (centres unmarked) [Example 92, (4-bromo-phenyl)-{2-[5-(3-methoxy-phenyl)-[1,3,4]oxadiazol-2-yl]-pyrrolidin-1-yl}-methanone] | 58%
COc1cccc(-c2nnc(C3CCCN3C(=O)c3ccnc(Cl)c3)o2)c1 (centres unmarked) [Example 94, (2-chloro-pyridin-4-yl)-{2-[5-(3-methoxy-phenyl)-[1,3,4]oxadiazol-2-yl]-pyrrolidin-1-yl}-methanone] | 50%
O=C(c1c(F)cccc1F)N1CCCC1c1nnc(-c2ccncc2)o1 (centres unmarked) [Example 101, (2,6-difluoro-phenyl)-[2-(5-pyridin-4-yl-[1,3,4]oxadiazol-2-yl)-pyrrolidin-1-yl]-methanone] | 54%
CCOc1ccc(C(=O)N2CCCC2c2nnc(-c3ccccc3)o2)cc1 (centres unmarked) [Example 109, (4-ethoxy-phenyl)-[2-(5-phenyl-[1,3,4]oxadiazol-2-yl)-pyrrolidin-1-yl]-methanone] | 54%
O=S(=O)(Cc1ccc(OC(F)(F)F)cc1)N1CCCC1c1nnc(-c2cccnc2)o1 (centres unmarked) [Example 134, 3-{5-[1-(4-trifluoromethoxy-benzylsulfonyl)-pyrrolidin-2-yl]-[1,3,4]oxadiazol-2-yl}-pyridine] | 55%
O=C(c1cc(C(F)(F)F)ccc1C(F)(F)F)N1CCCC1c1nnc(-c2ccc(Cl)cc2)o1 (centres unmarked) [Example 164, (2,5-bis-trifluoromethyl-phenyl)-{2-[5-(4-chloro-phenyl)-[1,3,4]oxadiazol-2-yl]-pyrrolidin-1-yl}-methanone] | 80%
O=C(c1cc(C(F)(F)F)ccc1C(F)(F)F)N1CCCC1c1nnc(-c2cccs2)o1 (centres unmarked) [Example 165, (2,5-bis-trifluoromethyl-phenyl)-[2-(5-thiophen-2-yl-[1,3,4]oxadiazol-2-yl)-pyrrolidin-1-yl]-methanone] | 76%
CCCc1c(C(=O)N2CCCC2c2nnc(-c3cccnc3)o2)cnn1-c1ccccc1 (centres unmarked) [Example 166, (1-phenyl-5-propyl-1H-pyrazol-4-yl)-[2-(5-pyridin-3-yl-[1,3,4]oxadiazol-2-yl)-pyrrolidin-1-yl]-methanone] | 78%
COc1cccc(-c2nnc(C3CCCN3C(=O)c3cccc(F)c3F)o2)c1 (centres unmarked) [Example 173, (2,3-difluoro-phenyl)-{2-[5-(3-methoxy-phenyl)-[1,3,4]oxadiazol-2-yl]-pyrrolidin-1-yl}-methanone] | 62%
Cc1nc(C(F)(F)F)ccc1C(=O)N1CCCC1c1nnc(-c2ccccc2)o1 (centres unmarked) [Example 174, (2-methyl-6-trifluoromethyl-pyridin-3-yl)-[2-(5-phenyl-[1,3,4]oxadiazol-2-yl)-pyrrolidin-1-yl]-methanone] | 61%
O=C(c1ccc(SC(F)(F)F)cc1)N1CCCC1c1nnc(-c2ccccc2)o1 (centres unmarked) [Example 181, [2-(5-phenyl-[1,3,4]oxadiazol-2-yl)-pyrrolidin-1-yl]-(4-trifluoromethylsulfanyl-phenyl)-methanone] | 62%
O=C(N1CCc2ccc(S(=O)(=O)N3CCCC3c3nnc(-c4ccncc4)o3)cc2C1)C(F)(F)F (centres unmarked) [Example 182, 2,2,2-trifluoro-1-{7-[2-(5-pyridin-4-yl-[1,3,4]oxadiazol-2-yl)-pyrrolidin-1-sulfonyl]-3,4-dihydro-1H-isoquinolin-2-yl}-ethanone] | 52%

Test system: phenylquinone-induced writhing in mice
Experiment: Analgesic efficacy by phenylquinone-induced writhing in mice
Format: in vivo
Conditions: male NMRI mice; 10 mg/kg i.v., 10 min before phenylquinone i.p.; writhing counted 5-20 min after phenylquinone
Procedure: Investigation of Analgesic Efficacy by Testing Writhing in Mice
The investigation into analgesic efficacy was performed by phenylquinone-induced writhing in mice (modified after: I. C. Hendershot and J. Forsaith (1959), J. Pharmacol. Exp. Ther. 125, 237–240). Male NMRI mice weighing from 25 to 30 g were used for this purpose. 10 minutes after intravenous administration of the compounds tested, groups of 10 animals per substance dose received 0.3 ml/mouse of a 0.02% aqueous solution of phenylquinone (phenylbenzoquinone, Sigma, Deisenhofen; solution prepared by adding 5% of ethanol and stored in a water bath at 45° C.) administered intraperitoneally. The animals were placed individually into observation cages. A pushbutton counter was used to record the number of pain-induced stretching movements (writhing reactions=straightening of the torso with stretching of the rear extremities) for 5–20 minutes after phenylquinone administration. The control was provided by animals which received only physiological common salt solution. All substances were tested at the standard dosage of 10 mg/kg. The percentage inhibition (% inhibition) of the writhing reactions by a substance was calculated according to the following formula: […]

Compound | % inhibition of writhing reaction by intravenous administration of 10 mg/kg
O=C(CCC1CCCC1)N1CCCC1c1nnc(-c2cccc(Cl)c2)o1 (centres unmarked) [Example 247, 1-{2-[5-(3-chloro-phenyl)-[1,3,4]oxadiazol-2-yl]-pyrrolidin-1-yl}-3-cyclopentyl-propan-1-one] | 33%
CCCCC(=O)N1CCCC1c1nnc(-c2cccc(Cl)c2)o1 (centres unmarked) [Example 248, 1-{2-[5-(3-chloro-phenyl)-[1,3,4]oxadiazol-2-yl]-pyrrolidin-1-yl}-pentan-1-one] | 45%
